Measurements from patent US12042485B2, “Methods of minimizing cancer metastasis” (MEDICINOVA, INC., priority 2021, dated 2024).

What was measured:
PDE 10A1 = PDE 10A1 (Homo sapiens, UniProt Q9Y233); conditions: Gibson et al., Eur. J. Pharmacol. 2006; cited from earlier work
MIF = assay: plasma level of MIF after ibudilast; conditions: found by the inventors; no data given
PDE 3A = PDE 3A (Homo sapiens, UniProt Q14432); conditions: Gibson et al., Eur. J. Pharmacol. 2006; cited from earlier work
[1] = target: toll-like receptor-4 (TLR4) (Homo sapiens, UniProt O00206); conditions: Yang et al., Cell Death and Disease 2016; cited from earlier work
[2] = target: T1, macrophage inhibitory factor (MIF) (Homo sapiens, UniProt P14174); conditions: Cho et al., PNAS-USA 2010; cited from earlier work
T1 sequence (P14174 2-115 limits assumed): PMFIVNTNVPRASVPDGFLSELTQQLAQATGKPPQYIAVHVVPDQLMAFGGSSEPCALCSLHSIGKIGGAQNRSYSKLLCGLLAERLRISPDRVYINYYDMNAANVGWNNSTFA

PDE 11A1 = PDE 11A1 (Homo sapiens, UniProt Q9HCR9); conditions: Gibson et al., Eur. J. Pharmacol. 2006; cited from earlier work
PDE 4 = conditions: Gibson et al., Eur. J. Pharmacol. 2006; cited from earlier work
[3] = Sanftner et al Xenobiotica 2009; cited from earlier work

Chain of toll-like receptor-4 (TLR4) (O00206 24-839, species assumed): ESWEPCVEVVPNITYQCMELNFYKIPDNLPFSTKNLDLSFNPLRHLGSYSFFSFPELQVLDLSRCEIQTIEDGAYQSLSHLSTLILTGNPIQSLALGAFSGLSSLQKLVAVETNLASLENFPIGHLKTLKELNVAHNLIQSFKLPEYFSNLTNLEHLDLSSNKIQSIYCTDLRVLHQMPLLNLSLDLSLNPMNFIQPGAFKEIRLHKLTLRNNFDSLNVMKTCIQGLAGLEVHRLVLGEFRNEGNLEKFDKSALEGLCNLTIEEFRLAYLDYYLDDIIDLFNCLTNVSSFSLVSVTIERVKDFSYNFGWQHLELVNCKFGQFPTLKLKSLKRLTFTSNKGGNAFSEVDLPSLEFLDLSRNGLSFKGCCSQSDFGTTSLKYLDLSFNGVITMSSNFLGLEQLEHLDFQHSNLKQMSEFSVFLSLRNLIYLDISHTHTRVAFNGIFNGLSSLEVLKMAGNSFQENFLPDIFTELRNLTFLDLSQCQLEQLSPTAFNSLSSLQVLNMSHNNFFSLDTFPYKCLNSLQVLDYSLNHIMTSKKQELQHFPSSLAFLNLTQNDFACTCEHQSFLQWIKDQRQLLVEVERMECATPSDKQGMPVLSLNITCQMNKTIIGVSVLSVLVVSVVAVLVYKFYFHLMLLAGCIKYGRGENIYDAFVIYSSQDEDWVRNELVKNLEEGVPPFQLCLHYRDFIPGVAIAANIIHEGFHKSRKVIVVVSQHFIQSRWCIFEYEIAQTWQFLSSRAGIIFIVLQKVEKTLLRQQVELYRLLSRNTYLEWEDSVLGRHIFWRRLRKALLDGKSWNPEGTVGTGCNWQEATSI
Chain of toll-like receptor-4 (TLR4) (Q9Y6Y9 17-160 partner limits assumed, species assumed): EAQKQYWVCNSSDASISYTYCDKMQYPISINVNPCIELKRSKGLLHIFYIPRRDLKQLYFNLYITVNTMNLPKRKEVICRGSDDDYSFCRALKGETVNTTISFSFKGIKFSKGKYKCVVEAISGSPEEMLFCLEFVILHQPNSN
Chain of PDE 10A1 (Q9Y233 1-779 isoform Q9Y233-1): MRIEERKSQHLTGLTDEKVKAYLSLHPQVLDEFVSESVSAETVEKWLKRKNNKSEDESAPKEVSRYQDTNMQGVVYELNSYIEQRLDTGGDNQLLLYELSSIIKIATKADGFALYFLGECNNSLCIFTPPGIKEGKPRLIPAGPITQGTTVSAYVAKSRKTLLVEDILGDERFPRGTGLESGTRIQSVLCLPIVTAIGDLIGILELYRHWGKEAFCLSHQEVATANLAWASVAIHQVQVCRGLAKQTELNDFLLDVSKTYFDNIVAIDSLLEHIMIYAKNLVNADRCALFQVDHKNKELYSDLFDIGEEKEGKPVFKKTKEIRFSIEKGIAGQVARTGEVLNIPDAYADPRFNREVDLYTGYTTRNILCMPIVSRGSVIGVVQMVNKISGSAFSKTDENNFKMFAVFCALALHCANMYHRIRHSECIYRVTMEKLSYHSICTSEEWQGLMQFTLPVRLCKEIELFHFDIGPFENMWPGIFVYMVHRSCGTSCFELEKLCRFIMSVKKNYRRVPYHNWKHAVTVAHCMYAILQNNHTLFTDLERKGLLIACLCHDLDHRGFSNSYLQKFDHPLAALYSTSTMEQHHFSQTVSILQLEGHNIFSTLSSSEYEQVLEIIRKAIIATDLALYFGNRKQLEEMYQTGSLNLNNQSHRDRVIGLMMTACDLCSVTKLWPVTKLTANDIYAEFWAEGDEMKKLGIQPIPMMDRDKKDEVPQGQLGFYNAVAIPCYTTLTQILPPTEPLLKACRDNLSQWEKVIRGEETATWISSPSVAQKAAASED
Chain of PDE 3A (Q14432 whole entry): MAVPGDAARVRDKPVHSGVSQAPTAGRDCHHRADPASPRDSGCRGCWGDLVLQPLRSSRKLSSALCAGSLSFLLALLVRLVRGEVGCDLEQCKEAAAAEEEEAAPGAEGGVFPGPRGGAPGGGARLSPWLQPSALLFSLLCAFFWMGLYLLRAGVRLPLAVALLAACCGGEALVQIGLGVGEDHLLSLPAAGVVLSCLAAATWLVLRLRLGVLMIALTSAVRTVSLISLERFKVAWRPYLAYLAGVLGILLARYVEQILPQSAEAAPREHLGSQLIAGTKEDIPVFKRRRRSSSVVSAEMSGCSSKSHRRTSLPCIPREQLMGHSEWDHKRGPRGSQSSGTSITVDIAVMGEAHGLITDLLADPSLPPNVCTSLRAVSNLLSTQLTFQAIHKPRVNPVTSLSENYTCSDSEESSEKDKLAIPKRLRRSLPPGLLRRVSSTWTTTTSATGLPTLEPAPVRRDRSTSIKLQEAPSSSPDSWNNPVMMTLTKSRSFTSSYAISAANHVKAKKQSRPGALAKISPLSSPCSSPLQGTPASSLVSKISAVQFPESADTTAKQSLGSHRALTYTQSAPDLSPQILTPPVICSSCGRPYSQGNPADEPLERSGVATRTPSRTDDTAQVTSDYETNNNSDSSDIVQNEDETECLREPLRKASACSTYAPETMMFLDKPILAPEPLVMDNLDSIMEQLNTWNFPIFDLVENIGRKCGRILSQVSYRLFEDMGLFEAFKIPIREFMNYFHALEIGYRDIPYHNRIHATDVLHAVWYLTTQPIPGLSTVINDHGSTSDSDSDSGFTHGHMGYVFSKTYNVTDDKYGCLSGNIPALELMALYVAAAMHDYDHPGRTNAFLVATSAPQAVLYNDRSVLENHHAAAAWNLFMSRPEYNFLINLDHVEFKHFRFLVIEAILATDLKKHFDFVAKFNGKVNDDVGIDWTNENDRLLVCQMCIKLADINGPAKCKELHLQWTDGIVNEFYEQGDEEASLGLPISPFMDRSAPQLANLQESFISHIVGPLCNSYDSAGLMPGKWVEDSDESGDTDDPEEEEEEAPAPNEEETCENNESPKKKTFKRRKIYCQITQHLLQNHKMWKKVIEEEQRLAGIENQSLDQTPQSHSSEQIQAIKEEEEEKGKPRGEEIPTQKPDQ
Chain of PDE 11A1 (Q9HCR9 445-933): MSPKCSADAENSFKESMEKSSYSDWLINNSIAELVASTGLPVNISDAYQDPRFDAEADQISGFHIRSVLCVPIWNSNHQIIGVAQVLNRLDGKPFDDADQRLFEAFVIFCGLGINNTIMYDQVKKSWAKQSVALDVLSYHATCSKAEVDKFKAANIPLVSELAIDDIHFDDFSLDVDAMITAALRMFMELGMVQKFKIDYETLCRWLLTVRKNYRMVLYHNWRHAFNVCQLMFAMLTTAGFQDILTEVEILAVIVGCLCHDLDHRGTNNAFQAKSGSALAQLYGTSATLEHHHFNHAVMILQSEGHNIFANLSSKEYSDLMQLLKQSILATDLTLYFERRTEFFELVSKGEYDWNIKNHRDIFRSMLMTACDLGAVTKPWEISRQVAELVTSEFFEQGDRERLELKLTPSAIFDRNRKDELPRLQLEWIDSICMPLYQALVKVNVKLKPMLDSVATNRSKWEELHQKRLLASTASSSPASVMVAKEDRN

For `CC(C)C(=O)c1c(C(C)C)nn2ccccc12` [ibudilast, 2-methyl-1-(2-(1-methylethyl)pyrazolo(1,5-a)pyridin-3-yl)1-propanone], the “inhibition of PDE 10A1” value (PDE 10A1) is given as “selective inhibitor”, the “plasma level of MIF” value (MIF) is given as “lowers” and the “inhibition of PDE 3A” value (PDE 3A) is given as “selective inhibitor”. The TLR4 antagonistic activity [1] was “antagonistic activity”, the “inhibition of HPP tautomerase activity of MIF” value [2] was “allosteric inhibitor” and the “inhibition of PDE 11A1” value (PDE 11A1) was “selective inhibitor”. For the same molecule, the “inhibition of PDE 4” value (PDE 4) was “selective inhibitor” and the CNS penetration [3] was “good CNS penetration”.
